# Test results published in patent US20090155784A1, “ASSESSMENT OF ASTHMA AND ALLERGEN-DEPENDENT GENE EXPRESSION” (Wyeth, priority 2007, published 2009).
# Test system: human whole blood
# Experiment: human whole blood assay verifying inhibitory activity of the inhibitor samples
# Format: cell-based
smiles,measurement,value
CC(c1cc2ccccc2s1)N(O)C(N)=O (stereo not shown) [Zileuton],inhibitory activity in a human whole blood assay,verified
